{
  "source": "patent US20200367756A1",
  "about": "“METHOD AND SYSTEM FOR IN VIVO DETECTION OF ADIPOSE TISSUE BROWNING” (Agency for Science, Technology and Research, priority 2018, published 2020)",
  "key": {"[1]": {"system": "WAT (browning of white adipose tissue)", "assay": "In vivo DRS measurement of lipid fraction (browning marker) in adipose tissue", "parameters": "species or system BALB/c nude mice", "description": "In particular, FIG. 5 depicts a schematic drawing of an example setup of in vivo DRS measurement system 500 for obtaining (e.g., generating or measuring) diffuse reflectance spectrum information (raw diffuse reflectance spectrum information) in a mouse model with partial skin incision using DRS spectroscopy in the NIR II optical window. In this regard, browning was induced in mice for 7 days by β-adrenergic administration followed by DRS measurement in the 1050 to 1350 nm range using an excitation-collection fiber probe 506 with source-detector fiber separations 508 configured to achieve a desired or sufficient depth of interrogation. The measured diffuse reflectance spectrum information obtained at the adipose tissue site was then processed according to various example embodiments to extract or derive water and lipid chromophore fractions (or water and lipid proportions or ratios) at the adipose tissue site in the 1050 nm to 1350 nm wavelength range. The water and lipid chromophore fractions were estimated from the measured DRS spectra by employing a lookup table (LUT) based on inverse Monte-Carlo modelling. In other words, the measured DRS spectra at the adipose tissue site is spectrally unmixed particularly for water and lipid chromophores using the Monte-Carlo based LUT within the wavelength range of 1050 nm to 1400 nm, or more preferably, 1050 nm to 1350 nm. […]"}, "[2]": {"system": "Ucp1", "assay": "Real-Time qPCR of Ucp1 mRNA in adipose tissues of treated mice", "assay_type": "in vivo, BALB/c nude mice", "conditions": "normalized to Gapdh mRNA", "experimental": "(§1) Mice (n=4; each group) were injected daily with either CL 316, 243 hydrate (1 mg/kg body weight intraperitoneally in test group (CL) or equal volume of saline in control (C) group animals for 7 days. After the in vivo DRS experiment, the mice was euthanized and fresh WAT tissues in control (C) and CL group were extracted and immediately frozen for RNA and protein expression analyses. WAT from the inguinal region and BAT from the interscapular region were stored in 10% normal buffered formalin (NBF) for hematoxylin and eosin (H&E) staining and Immunohistochemistry (IHC). BAT tissues extracted from mice injected with saline is marked as C BAT while BAT from CL injected mice as CL BAT. Similarly, WAT and beige refer to the WATs in saline (control) and CL injected group, respectively.\nIn various example embodiments, total RNA was extracted with the RNeasy Lipid Tissue Mini Kit (Qiagen, Hilden, Germany) according to the manufacturer's instruction and Real-Time PCR was conducted using UCP1 primer pair UCP1_F: 5′-GGCCTCTACGACTCAGTCCA-3′ and UCP1_R: 5′-TAAGCCGGCTGAGATCTTGT-3′. GAPDH was used to normalize the relative mRNA expression by using a primer pair GAPDH_F: 5′-CAA GGT CAT CCA CTT-3′ and GAPDH_R: 5′-GGC CAT CCA CAG TCT GG-3′. The results are represented as mean±SE (n=4 in each group)."}, "[3]": {"system": "Ucp1", "assay": "Western blot analysis of UCP1 protein in adipose tissues of treated mice", "assay_type": "in vivo, BALB/c nude mice", "conditions": "loading control β-ACTIN, vs saline WAT, hydrate", "experimental": "as §1\nIn various example embodiments, total protein lysates isolation from adipose tissues extracted from mice administered with either saline or CL (n=4, each group) was done in RadioImmunoPrecipitation Assay (RIPA) lysis buffer and quantified using the Biorad assay. Equal volume of proteins were loaded onto 10% Sodium Dodecyl Sulfate-Polyacrylamide Gel Electrophoresis (SDS-PAGE) followed by transfer to the PolyVinyliDene Fluoride (PVDF) membrane. […]"}, "[4]": {"system": "WAT and BAT adipocytes", "assay": "H&E staining of WAT and BAT of treated mice", "assay_type": "in vivo, BALB/c nude mice", "experimental": "as §1\n(§2) In various example embodiments, H&E staining and UCP1 IHC were performed by the Advanced Molecular Pathology Laboratory (AMPL) at the Institute of Molecular and Cell Biology (IMCB), A*STAR, according to standard operating procedures. 1:50 dilution of UCP1 antibody (Abcam) at pH 6.0 was used for UCP1 IHC. All the images were obtained by using Olympus microscope equipped with DS-L3+Filc camera with a ×20 objective lens. Software ImageJ was used to analyse the images."}, "[5]": {"system": "Ucp1", "assay": "UCP1 immunohistochemistry (IHC) of WAT and BAT of treated mice", "assay_type": "in vivo, BALB/c nude mice", "experimental": "as §1, §2"}, "[6]": {"conditions": "inguinal WAT, vs saline control WAT, hydrate"}, "[7]": {"conditions": "interscapular BAT, CL vs saline"}},
  "note": "Entries after “also recorded” stand apart in the source; their conditions may differ.",
  "data": [
    {"smiles": "C[C@H](Cc1ccc2c(c1)OC(C(=O)[O-])(C(=O)[O-])O2)NC[C@H](O)c1cccc(Cl)c1.[Na+].[Na+]", "note": "[CL, CL 316, 243 hydrate]", "values": [
      {"measurement": "lipid fraction (SLW) of beige adipose tissue (CL treated WAT)", "setting": "[1]; mice, 1 mg/kg intraperitoneally daily for 7 days, DRS 1050 to 1350 nm, MCLUT unmixing, control WAT 0.70±0.095, BAT 0.518±0.112", "result": "0.628±0.076", "unit": "a.u."},
      {"measurement": "extent of WAT browning indicated by calculated SLW", "setting": "[1]; over a period of 7 days, CL treated animals", "result": "about 50%"},
      {"measurement": "Ucp1 mRNA expression in BAT", "setting": "[2]; BAT (CL) vs BAT (C)", "result": "did not significantly change"},
      {"measurement": "Ucp1 mRNA expression in WAT (beige) relative to saline control (WAT)", "setting": "[2]; 1 mg/kg i.p. daily, 7 days", "result": "significantly enhanced"},
      {"measurement": "UCP1 protein expression in WAT (beige)", "setting": "[3]", "result": "significantly induced; also recorded: higher expression"},
      {"measurement": "adipocyte morphology in WAT (beige), H&E staining", "setting": "[4]; [6]", "result": "subpopulation of multilocular adipocytes are emerging"},
      {"measurement": "adipocyte appearance in BAT, H&E staining", "setting": "[4]; [7]", "result": "appearance was not changed"},
      {"measurement": "UCP1 IHC signal in WAT (beige)", "setting": "[5]; [6]", "result": "significant emergence of UCP1 expression; also recorded: increased UCP1 staining"},
      {"measurement": "UCP1 IHC signal in BAT", "setting": "[5]; [7]", "result": "not changed"}
    ]}
  ]
}
